Measurements reported in ChEMBL document CHEMBL1122681, “(Acylaryloxy)acetic acid diuretics. 5. [(2-Alkyl- and 2,2-disubstituted-1,3-dioxo-5-indanyl)oxy]acetic acids” (J Med Chem, 1984).

Columns and labels:
[1] = system: Pan troglodytes; test: Compound was evaluated for diuretic activity in chimpanzee measured as increase in volume of urine at 5 mg/kg; format: functional
[2] = system: Pan troglodytes; test: Compound was evaluated for diuretic activity in chimpanzee measured as increase in the number of microequivalents of K+ /min at 1 mg/kg; format: functional, Urine
[3] = system: Pan troglodytes; test: Compound was evaluated for diuretic activity in chimpanzee measured as clearance of […] and urate after peroral administration of 5 mg/kg; format: functional, Urine; settings: route oral
[4] = system: Pan troglodytes; test: (§1) Compound was evaluated for diuretic activity in chimpanzee measured as increase in volume of urine at 1 mg/kg; format: ADME, organism-based; set-up: dose 1 mg/kg; settings: in vivo
[5] = system: Pan troglodytes; test: Compound was evaluated for diuretic activity in chimpanzee measured as increase in the number of microequivalents of Cl- electrolyte/min at 1 mg/kg; format: functional, Urine
[6] = system: Pan troglodytes; test: Compound was evaluated for diuretic activity in chimpanzee measured as increase in the number of microequivalents of K+ /min at 5 mg/kg; format: functional, Urine
[7] = system: Pan troglodytes; test: (§2) Compound was evaluated for diuretic activity in chimpanzee measured as increase in the number of microequivalents of Na+ /min at 1 mg/kg; format: functional, Urine
[8] = system: Pan troglodytes; test: Compound was evaluated for diuretic activity in chimpanzee measured as increase in the number of microequivalents of cl-/min at 5 mg/kg; format: functional, Urine
[9] = system: Pan troglodytes; test: Compound was evaluated for diuretic activity in chimpanzee measured as clearance of […] and urate after intra venous administration of 5 mg/kg.; format: functional, Urine
[10] = system: Pan troglodytes; test: Compound was evaluated for diuretic activity in chimpanzee measured as increase in the number of microequivalents of Na+ /min at 5 mg/kg; format: functional, Urine
[11] = volume of urine at 27 mg/kg; format: ADME, organism-based; set-up: dose 27 mg/kg; settings: in vivo
[12] = system: Rattus norvegicus; test: Compound was evaluated for diuretic activity administered orally in female rats measured as milliequivalents of Cl-x 100 / cage at 9 mg/kg; format: functional, Urine; settings: route oral
[13] = system: Rattus norvegicus; test: Compound was evaluated for diuretic activity administered orally in female rats measured as milliequivalents of Na+x 100 / cage at 9 mg/kg; format: functional, Urine; settings: route oral
[14] = system: Canis familiaris; test: Compound was evaluated for diuretic activity, in female mongrel dogs by measuring amount of K+ in urine after iv administration of 5 mg/kg (control/compound treatment results) Control = 13; format: functional, Canis lupus familiaris
[15] = volume of urine at 9 mg/kg; format: ADME, organism-based; set-up: dose 9 mg/kg; settings: in vivo
[16] = system: Canis familiaris; test: Compound was evaluated for diuretic activity, in female mongrel dogs by measuring amount of Cl- in urine after iv administration of 5 mg/kg (control/compound treatment results) Control = 6; format: functional, Canis lupus familiaris
[17] = system: Rattus norvegicus; test: Compound was evaluated for diuretic activity administered orally in female rats measured as milliequivalents of K+x 100 / cage at 81 mg/kg; format: functional, Urine; settings: route oral
[18] = system: Canis familiaris; test: Compound was evaluated for diuretic activity, administered orally in female mongrel dogs (5 mg/kg) measured as milliequivalents of Na; format: functional, Canis lupus familiaris, Urine
[19] = system: Rattus norvegicus; test: Compound was evaluated for diuretic activity administered orally in female rats measured as milliequivalents of Na+x 100 / cage at 3 mg/kg; format: functional, Urine; settings: route oral
[20] = volume of urine at 81 mg/kg; format: ADME, organism-based; set-up: dose 81 mg/kg; settings: in vivo
[21] = system: Canis familiaris; test: Compound was evaluated for diuretic activity, in female mongrel dogs by measuring volume of urine, after iv administration of 5 mg/kg (control/compound treatment results) Control = 1; format: ADME, organism-based, Canis lupus familiaris; set-up: dose 5 mg/kg, route intravenous; settings: dog, in vivo
[22] = system: Pan troglodytes; test: Compound was evaluated for diuretic activity in chimpanzee measured as increase in the number of microequivalents of Cl- electrolyte/min at 5 mg/kg; format: functional, Urine
[23] = system: Canis familiaris; test: Compound was evaluated for diuretic activity, administered orally in female mongrel dogs (5 mg/kg) measured as milliequivalents of K; format: functional, Canis lupus familiaris, Urine
[24] = system: Pan troglodytes; test: as §1; format: functional
[25] = system: Rattus norvegicus; test: Compound was evaluated for diuretic activity administered orally in female rats measured as milliequivalents of Cl-x 100 / cage at 3 mg/kg; format: functional, Urine; settings: route oral
[26] = system: Rattus norvegicus; test: Compound was evaluated for diuretic activity administered orally in female rats measured as milliequivalents of Cl-x 100 / cage at 81 mg/kg; format: functional, Urine; settings: route oral
[27] = system: Rattus norvegicus; test: Compound was evaluated for diuretic activity administered orally in female rats measured as milliequivalents of K+x 100 / cage at 3 mg/kg; format: functional, Urine; settings: route oral
[28] = system: Rattus norvegicus; test: Compound was evaluated for diuretic activity administered orally in female rats measured as milliequivalents of K+x 100 / cage at 27 mg/kg; format: functional, Urine; settings: route oral
[29] = system: Rattus norvegicus; test: Compound was evaluated for diuretic activity administered orally in female rats measured as milliequivalents of Cl-+x 100 / cage at 27 mg/kg; format: functional, Urine; settings: route oral
[30] = system: Rattus norvegicus; test: Compound was evaluated for diuretic activity administered orally in female rats measured as milliequivalents of K+x 100 / cage at 9 mg/kg; format: functional, Urine; settings: route oral
[31] = system: Canis familiaris; test: Compound was evaluated for diuretic activity, administered orally in female mongrel dogs (5 mg/kg) measured as milliequivalents of Cl-; format: functional, Canis lupus familiaris, Urine
[32] = system: Pan troglodytes; test: Compound was evaluated for diuretic activity in chimpanzee measured as clearance of […] and urate after intra venous administration of 1 mg/kg.; format: functional, Urine
[33] = organism: Canis familiaris; test: Volume of urine in dog; format: ADME, organism-based, Canis lupus familiaris; settings: in vivo
[34] = system: Rattus norvegicus; test: Compound was evaluated for diuretic activity administered orally in female rats measured as milliequivalents of Na+x 100 / cage at 81 mg/kg; format: functional, Urine; settings: route oral
[35] = volume of urine at 3 mg/kg; format: ADME, organism-based; set-up: dose 3 mg/kg; settings: in vivo
[36] = system: Canis familiaris; test: Compound was evaluated for diuretic activity, in female mongrel dogs by measuring amount of Na+ in urine after iv administration of 5 mg/kg (control/compound treatment results) Control = 79; format: functional, Canis lupus familiaris
[37] = system: Rattus norvegicus; test: Compound was evaluated for diuretic activity administered orally in female rats measured as milliequivalents of Na+x 100 / cage at 27 mg/kg; format: functional, Urine; settings: route oral
[38] = system: Canis familiaris; test: Compound was evaluated for diuretic activity, in female mongrel dogs by measuring amount of K+ in urine after iv administration of 5 mg/kg (control/compound treatment results) Control = 10; format: functional, Canis lupus familiaris
[39] = system: Canis familiaris; test: Compound was evaluated for diuretic activity, in female mongrel dogs by measuring volume of urine, after iv administration of 5 mg/kg (control/compound treatment results) Control = 2; format: ADME, organism-based, Canis lupus familiaris; set-up: dose 5 mg/kg, route intravenous; settings: dog, in vivo
[40] = system: Pan troglodytes; test: as §2; format: functional, Urine; remark: listed apart in the source
[41] = system: Canis familiaris; test: Compound was evaluated for diuretic activity, in female mongrel dogs by measuring amount of Na+ in urine after iv administration of 5 mg/kg (control/compound treatment results) Control = 35; format: functional, Canis lupus familiaris
[42] = system: Canis familiaris; test: Compound was evaluated for diuretic activity, in female mongrel dogs by measuring amount of Cl- in urine after iv administration of 5 mg/kg (control/compound treatment results) Control = 5; format: functional, Canis lupus familiaris
[43] = system: Pan troglodytes; test: Compound was evaluated for diuretic activity in chimpanzee measured as clearance of […] and urate after intravenous administration of 1 mg/kg; format: functional, Urine

CCC1C(=O)c2cc(OC)c(Cl)c(Cl)c2C1=O (centres undefined)
Increase in volume [1]: 0.1 mL/min | Increase [2]: 26 | Delta C urate / delta C insulin [3]: 0.008 | Increase in volume [4]: 0.1 mL/min | Increase [5]: 13 | Increase [6]: 27 | Increase [7]: 3 | Increase [8]: 10 | Delta C urate / delta C insulin [9]: 0 | Increase [10]: 4

CCC1(CC)C(=O)c2cc(OCC(=O)O)c(C)c(Cl)c2C1=O
Urine volume [11]: 33 mL | Activity [12]: 124 | Activity [13]: 92 | Increase in volume [1]: 2.7 mL/min | Increase [2]: 131 | Activity [14]: 27 u equiv min-1 | Urine volume [15]: 26 mL | Activity [16]: 157 u equiv min-1 | Activity [17]: 106 | Activity [18]: 7 | Delta C urate / delta C insulin [3]: 0.138 | Activity [19]: 70 | Urine volume [20]: 38 mL | Urine volume [21]: 2 mL/min | Increase [5]: 123 | Increase [22]: 285 | Increase [6]: 132 | Increase [7]: 25 | Activity [23]: 5 | Increase in volume [24]: 0.4 mL/min | Activity [25]: 82 | Activity [26]: 369 | Activity [27]: 29 | Activity [28]: 62 | Activity [29]: 222 | Activity [30]: 43 | Activity [31]: 10 | Delta C urate / delta C insulin [32]: 0.082 | Urine volume [33]: 570 mL | Increase [10]: 290 | Activity [34]: 251 | Urine volume [35]: 27 mL | Activity [36]: 259 u equiv min-1 | Activity [37]: 158

Cc1c(OCC(=O)O)cc2c(c1Cl)C(=O)C(C)(C1CCCC1)C2=O (centres undefined)
Urine volume [11]: 27 mL | Activity [12]: 30 | Activity [13]: 41 | Activity [38]: 41 u equiv min-1 | Increase in volume [1]: 0 mL/min | Increase [2]: 51 | Urine volume [15]: 27 mL | Activity [17]: 36 | Delta C urate / delta C insulin [3]: 0.149 | Activity [19]: 19 | Urine volume [39]: 2 mL/min | Increase [40]: 82 | Urine volume [20]: 25 mL | Activity [41]: 132 u equiv min-1 | Increase [5]: 129 | Activity [42]: 48 u equiv min-1 | Increase [22]: 527 | Increase [6]: 54 | Increase in volume [24]: 0.6 mL/min | Activity [25]: 17 | Activity [26]: 86 | Activity [27]: 21 | Activity [28]: 22 | Activity [29]: 40 | Activity [30]: 24 | Increase [10]: 388 | Activity [34]: 76 | Delta C urate / delta C insulin [43]: 0.204 | Urine volume [35]: 24 mL | Activity [37]: 50
